Counter-ions that a name gives are not always drawn.
Assays:
K562 = assay: Cell proliferation assay (CellTiterGlo, 72 hour incubation), K562; assay type: cell-based; conditions: Homo sapiens, K562 cells, inhibition of cell proliferation, CellTiterGlo luminescence
Method: (§1) Various cancer cell lines including K562 and COLO201, were treated with the compounds of the present disclosure to assess their effect on inhibiting cell proliferation.
(§2) For compound preparation, test compounds were diluted in duplicates from 10 mM stocks in 11-points 1:3 serial dilutions in DMSO. Then 125 nL test compounds at the serial dilutions were dispensed into 384-well assay plate using Echo dispenser. Staurosporine at 1 mM stock (5 μM final concentration) and DMSO (0.500 final concentration) were used as the positive and negative controls respectively.
(§3) To prepare cell lines, each frozen cell line stock was resuspended and grown in proper growth medium to a density of 40,000 cells/mL. Then 25 μL of cell suspension were dispensed into the assay plate to give seed cell density at 1,000 cells/well, compounds at 50 μM top concentration with 11-point serial dilutions, and 0.5% o DMSO final concentration. Assay plates were then centrifuged at 300 rpm for 1 minute and then incubated at 37° C., 9500 humidity, 500 CO2 for 72 hours. After the 72 hour incubation, the assay plate and its contents were equilibrated at room temperature for approximately 30 minutes. 25 μL of CellTiterGlo reagent was added to the assay plate and mixed for two minutes on an orbital shaker. Then after 10 minutes of incubation of assay plate at from temperature, the luminescence (RLU) signals in each well were recorded using Envision plate reader, then converted to percentage inhibition values using the signals in staurosporine and DMSO treated wells as the references. IC50 values were determined by curve fitting in Levenberg-Marquardt algorithm.

COLO201 = assay: Cell proliferation assay (CellTiterGlo, 72 hour incubation), COLO201; assay type: cell-based; conditions: Homo sapiens, COLO 201, COLO201 cells, inhibition of cell proliferation, CellTiterGlo luminescence
Method: as §1, §2, §3

Cc1cn2cc(-c3nc(=O)n4cc(N5CCN(C)CC5)ccc4n3)cc(F)c2n1 [Compound 103, 2-(8-fluoro-2-methylimidazo[1,2-a]pyridin-6-yl)-7-(4-methylpiperazin-1-yl)-4H-pyrido[1,2-a][1,3,5]triazin-4-one]
IC50 (K562): 1 to 10 µM | IC50 (COLO201): 1 to 10 µM

Cc1cn2cc(-c3nc(=O)n4cc(N5CCN[C@@H](C)C5)ccc4n3)cc(F)c2n1 [Compound 101]
IC50 (K562): < 1 µM | IC50 (COLO201): < 1 µM

Cc1cn2cc(-c3nc(=O)n4cc(C5=CCNCC5)ccc4n3)cc(F)c2n1 [Compound 111, 2-(8-fluoro-2-methylimidazo[1,2-a]pyridin-6-yl)-7-(1,2,3,6-tetrahydropyridin-4-yl)-4H-pyrido[1,2-a][1,3,5]triazin-4-one hydrochloride]
IC50 (K562): 1 to 10 µM | IC50 (COLO201): < 1 µM

Cc1cn2cc(-c3nc(=O)n4cc(N5CC6CCC(C5)N6)ccc4n3)cc(F)c2n1 [Compound 105, 7-(3,8-diazabicyclo[3.2.1]octan-3-yl)-2-(8-fluoro-2-methylimidazo[1,2-a]pyridin-6-yl)-4H-pyrido[1,2-a][1,3,5]triazin-4-one hydrochloride]
IC50 (K562): ≥ 10 µM | IC50 (COLO201): ≥ 10 µM

Cc1cn2cc(-c3nc(=O)n4cc(N5CCCNCC5)ccc4n3)cc(F)c2n1 [Compound 104, 7-(1,4-diazepan-1-yl)-2-(8-fluoro-2-methylimidazo[1,2-a]pyridin-6-yl)-4H-pyrido[1,2-a][1,3,5]triazin-4-one hydrochloride]
IC50 (K562): ≥ 10 µM | IC50 (COLO201): ≥ 10 µM

Cc1cn2cc(-c3nc(=O)n4cc(N5C[C@@H](C)N[C@@H](C)C5)ccc4n3)cc(F)c2n1 [Compound 107, 7-((3S,5R)-3,5-dimethylpiperazin-1-yl)-2-(8-fluoro-2-methylimidazo[1,2-a]pyridin-6-yl)-4H-pyrido[1,2-a][1,3,5]triazin-4-one hydrochloride]
IC50 (K562): < 1 µM | IC50 (COLO201): < 1 µM

Cc1cn2cc(-c3nc(=O)n4cc(N5CCNC(C)(C)C5)ccc4n3)cc(F)c2n1 [Compound 109, 7-(3,3-dimethylpiperazin-1-yl)-2-(8-fluoro-2-methylimidazo [1,2-a]pyridin-6-yl)-4H-pyrido[1,2-a][1,3,5]triazin-4-one]
IC50 (K562): < 1 µM | IC50 (COLO201): < 1 µM

Cc1cn2cc(-c3nc(=O)n4cc(N5CCNCC5)c(C)cc4n3)cc(F)c2n1 [Compound 115, 2-(8-fluoro-2-methylimidazo[1,2-a]pyridin-6-yl)-8-methyl-7-(piperazin-1-yl)-4H-pyrido[1,2-a][1,3,5]triazin-4-one hydrochloride]
IC50 (K562): < 1 µM | IC50 (COLO201): 1 to 10 µM

Cc1cn2cc(-c3nc(=O)n4cc(N5CCN[C@@H](C)C5)cc(C)c4n3)cc(F)c2n1 [Compound 117, (S)-2-(8-fluoro-2-methylimidazo[1,2-a]pyridin-6-yl)-9-methyl-7-(3-methylpiperazin-1-yl)-4H-pyrido[1,2-a][1,3,5]triazin-4-one hydrochloride]
IC50 (K562): < 1 µM | IC50 (COLO201): < 1 µM

— patent publication US20250026753A1, “FUSED TRIAZINONE DERIVATIVES AND METHODS OF USING THE SAME” (Rgenta Therapeutics, Inc., priority 2021, published 2025)
